What was measured:
[1] = target: T1, Acetylcholinesterase (Bos taurus, UniProt P23795); test: Inhibition of bovine erythrocytes AChE using acetylthiocholine iodide as substrate by Ellman's methods
T1 sequence (P23795 whole entry): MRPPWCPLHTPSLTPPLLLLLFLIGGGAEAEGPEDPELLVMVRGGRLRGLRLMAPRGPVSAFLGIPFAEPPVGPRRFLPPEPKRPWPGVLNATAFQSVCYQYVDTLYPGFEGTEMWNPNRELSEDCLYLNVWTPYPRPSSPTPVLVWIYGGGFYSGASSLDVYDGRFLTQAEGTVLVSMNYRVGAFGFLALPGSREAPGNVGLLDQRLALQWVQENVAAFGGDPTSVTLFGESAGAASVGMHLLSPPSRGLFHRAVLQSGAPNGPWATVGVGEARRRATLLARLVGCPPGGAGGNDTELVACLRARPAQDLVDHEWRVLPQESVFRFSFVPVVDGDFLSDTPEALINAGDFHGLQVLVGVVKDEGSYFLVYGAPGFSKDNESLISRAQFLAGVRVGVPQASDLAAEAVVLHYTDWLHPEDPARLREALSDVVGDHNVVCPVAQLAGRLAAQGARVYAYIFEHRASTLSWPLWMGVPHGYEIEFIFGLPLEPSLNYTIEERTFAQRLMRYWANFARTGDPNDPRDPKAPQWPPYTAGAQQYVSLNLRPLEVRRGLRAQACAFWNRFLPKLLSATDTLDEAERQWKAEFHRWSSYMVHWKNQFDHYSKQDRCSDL

[2] = target: T2, Cholinesterase (Homo sapiens, UniProt P06276)
Description: Inhibition of human serum BuChE using butyrylthiocholine iodide as substrate by Ellman's methods

[3] = target: Acetylcholinesterase (Electrophorus electricus, UniProt O42275)
Description: Inhibition of electric eel AChE

[4] = target: Voltage-gated calcium channel
Description: Inhibition of VGCC (unknown origin)

[5] = target: T2, Cholinesterase; remark: listed apart in the source
Description: Inhibition of BuChE (unknown origin)

[6] = target: Acetylcholinesterase (Homo sapiens, UniProt P22303); test: Inhibition of human AChE
[7] = target: T2, Cholinesterase; test: Inhibition of human BuChE

T2 sequence (P06276 whole entry): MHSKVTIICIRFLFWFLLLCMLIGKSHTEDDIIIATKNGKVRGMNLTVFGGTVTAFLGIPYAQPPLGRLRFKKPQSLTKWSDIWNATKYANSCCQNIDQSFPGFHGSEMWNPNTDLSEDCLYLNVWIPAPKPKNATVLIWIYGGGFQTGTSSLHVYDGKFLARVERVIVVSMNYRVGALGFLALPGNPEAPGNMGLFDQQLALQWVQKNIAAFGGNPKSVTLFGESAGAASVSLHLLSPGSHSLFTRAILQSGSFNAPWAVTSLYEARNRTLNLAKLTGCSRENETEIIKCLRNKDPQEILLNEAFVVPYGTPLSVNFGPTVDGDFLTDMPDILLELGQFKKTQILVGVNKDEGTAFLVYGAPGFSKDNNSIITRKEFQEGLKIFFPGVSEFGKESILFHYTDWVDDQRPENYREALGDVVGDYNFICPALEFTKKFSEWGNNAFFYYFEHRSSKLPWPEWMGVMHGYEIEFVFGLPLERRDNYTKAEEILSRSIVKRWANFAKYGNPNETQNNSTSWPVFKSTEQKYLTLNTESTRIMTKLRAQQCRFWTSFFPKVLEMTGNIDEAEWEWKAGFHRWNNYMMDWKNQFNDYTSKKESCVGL
Sequence of Acetylcholinesterase (Electrophorus electricus, UniProt O42275) (O42275 whole entry): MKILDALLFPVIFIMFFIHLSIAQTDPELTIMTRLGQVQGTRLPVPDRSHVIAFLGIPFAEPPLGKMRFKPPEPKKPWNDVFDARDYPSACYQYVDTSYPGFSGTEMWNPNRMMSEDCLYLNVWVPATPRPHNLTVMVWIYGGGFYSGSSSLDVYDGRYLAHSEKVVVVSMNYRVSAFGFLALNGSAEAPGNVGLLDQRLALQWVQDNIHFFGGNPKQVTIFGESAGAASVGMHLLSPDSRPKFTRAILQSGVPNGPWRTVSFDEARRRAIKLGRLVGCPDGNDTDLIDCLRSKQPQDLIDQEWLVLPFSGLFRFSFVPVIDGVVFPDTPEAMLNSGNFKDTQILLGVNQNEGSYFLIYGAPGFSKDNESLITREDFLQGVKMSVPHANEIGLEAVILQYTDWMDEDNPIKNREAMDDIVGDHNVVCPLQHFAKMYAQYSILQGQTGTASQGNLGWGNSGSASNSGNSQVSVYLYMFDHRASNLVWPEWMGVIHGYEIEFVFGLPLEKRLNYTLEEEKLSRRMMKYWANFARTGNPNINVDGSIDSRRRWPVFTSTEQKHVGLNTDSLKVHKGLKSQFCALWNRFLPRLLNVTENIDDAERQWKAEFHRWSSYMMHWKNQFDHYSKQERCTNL
Sequence of Acetylcholinesterase (Homo sapiens, UniProt P22303) (P22303 whole entry): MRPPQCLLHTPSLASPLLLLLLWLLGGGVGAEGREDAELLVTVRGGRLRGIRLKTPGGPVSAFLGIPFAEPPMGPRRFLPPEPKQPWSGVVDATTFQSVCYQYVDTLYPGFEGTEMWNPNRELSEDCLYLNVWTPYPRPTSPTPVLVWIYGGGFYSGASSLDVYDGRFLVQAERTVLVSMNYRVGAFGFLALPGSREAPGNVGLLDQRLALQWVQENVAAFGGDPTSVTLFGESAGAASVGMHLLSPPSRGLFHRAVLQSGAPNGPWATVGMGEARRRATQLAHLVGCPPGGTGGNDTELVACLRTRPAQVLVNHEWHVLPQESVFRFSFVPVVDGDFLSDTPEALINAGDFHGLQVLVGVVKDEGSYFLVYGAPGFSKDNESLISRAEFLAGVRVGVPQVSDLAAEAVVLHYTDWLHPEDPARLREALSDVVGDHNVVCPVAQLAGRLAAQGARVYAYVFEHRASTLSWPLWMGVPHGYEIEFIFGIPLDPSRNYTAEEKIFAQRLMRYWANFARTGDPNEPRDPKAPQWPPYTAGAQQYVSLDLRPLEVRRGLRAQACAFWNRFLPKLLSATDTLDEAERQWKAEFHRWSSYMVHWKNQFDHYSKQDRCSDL

Row | SMILES | IC50 [3] | IC50 [4] | further results
1 | CCOC(=O)c1c(C)nc2nc3c(c(N)c2c1-c1ccc(OC)cc1)CCCCC3 |  |  | IC50 ([1]; read-out: IC50): 1.3 µM; IC50 [2]: 80.6 µM
2 | CCOC(=O)c1c(C)nc2nc3c(c(N)c2c1-c1ccc(OC)c(OC)c1)CCCCC3 | 6.4 µM | 9 µM | 
3 | CCOC(=O)c1c(C)nc2nc3c(c(N)c2c1-c1ccc(F)cc1)CCCC3 | 0.7 µM | 38 µM | IC50 [5]: 12 µM
4 | CCOC(=O)c1c(C)nc2nc3c(c(N)c2c1-c1ccc(OC)c(OC)c1)CCCC3 | 1.3 µM | 26 µM | 
5 | CCOC(=O)c1c(C)nc2nc3c(c(N)c2c1-c1ccccc1)CCCCCC3 | 17 µM | 10 µM | 
6 | CCOC(=O)c1c(C)nc2nc3c(c(N)c2c1-c1cccc([N+](=O)[O-])c1)CCCC3 | 0.9 µM | 18 µM | IC50 [5]: 21 µM
7 | CCOC(=O)c1c(C)nc2nc3c(c(N)c2c1-c1ccc(OC)cc1)CCCC3 |  |  | IC50 [1]: 9 µM
8 | CCOC(=O)c1c(C)nc2nc3c(c(N)c2c1-c1ccc(OC)cc1)CCC3 |  |  | IC50 ([1]; read-out: IC50): 14 µM
9 | COc1ccc(C2c3c(nc4c(c3N)CCCC4)Oc3ccc4ccccc4c32)cc1OC (racemic) |  |  | IC50 [6]: 0.083 µM
10 | CCOC(=O)c1c(C)nc2nc3c(c(N)c2c1-c1ccccc1OC)CCCCC3 | 22 µM | 17 µM | 
11 | CCOC(=O)c1c(C)nc2nc3c(c(N)c2c1-c1ccc(C)cc1)CCCCC3 | 13 µM | 24 µM | 
12 | CCOC(=O)c1c(C)nc2nc3c(c(N)c2c1-c1cccc(OC)c1)CCCC3 | 1.2 µM | 15 µM | IC50 [5]: 31 µM
13 | Cc1nc2nc3c(c(N)c2c(-c2ccccc2)c1C(=O)OC(C)C)CCCC3 | 1.2 µM | 10 µM | IC50 [5]: 12 µM
14 | COc1cc(C2c3ccc(O)cc3Oc3nc4c(c(N)c32)CCCC4)cc(OC)c1OC (racemic) |  |  | IC50 ([1]; read-out: IC50): 0.041 µM
15 | CCOC(=O)c1c(C)nc2nc3c(c(N)c2c1-c1cccc(OC)c1)CCCCC3 |  | 9 µM | 
16 | CCOC(=O)c1c(C)nc2nc3c(c(N)c2c1-c1ccccc1)CCCCC3 |  |  | IC50 [1]: 21 µM
17 | CCOC(=O)c1c(C)nc2nc3c(c(N)c2c1-c1ccc(F)cc1)CCCCC3 | 5.4 µM | 17 µM | 
18 | CCOC(=O)c1c(C)nc2nc3c(c(N)c2c1-c1ccc([N+](=O)[O-])cc1)CCCCC3 | 14 µM | 13 µM | 
19 | CCOC(=O)c1c(C)nc2nc3c(c(N)c2c1-c1ccccc1)CCCC3 |  | 20 µM | IC50 [1]: 0.82 µM; IC50 [2]: 5 µM; IC50 [5]: 5 µM
20 | CCOC(=O)c1c(C)nc2nc3c(c(N)c2c1-c1ccc(Cl)cc1)CCCC3 | 1.3 µM | 34 µM | IC50 [5]: 52 µM
21 | CCOC(=O)c1c(C)nc2nc3c(c(N)c2c1-c1ccc(OC)cc1)CCCCCC3 | 17 µM | 20 µM | 
22 | CCOC(=O)C1=C(C)Oc2nc3c(c(N)c2C1c1ccc(OC)cc1)CCCC3 (racemic) |  |  | IC50 [7]: 6.2 µM; IC50 ([1]; read-out: IC50): 0.87 µM; IC50 [2]: 6.2 µM
23 | CCOC(=O)c1c(C)nc2nc3c(c(N)c2c1-c1ccc(Cl)cc1)CCCCC3 | 19 µM | 27 µM | 
24 | CCOC(=O)c1c(C)nc2nc3c(c(N)c2c1-c1ccccc1)CCC3 |  |  | IC50 [1]: 11.9 µM

Reference: ChEMBL document CHEMBL4613210, “Tacrines for Alzheimer's disease therapy. III. The PyridoTacrines” (Eur J Med Chem, 2019)
